What was measured:
Type in all cases: biochemical, influenza A(H7N2) virus
[1] = test system: NA enzymatic activity of A/chicken/NY/99
[2] = test system: NA enzymatic activity of A/feline/NY/16
NA of the H7N2 viruses = test system: NA of the H7N2 viruses

Row | Structure (SMILES) | Sensitivity to NA inhibitors (50% inhibitory concentration (IC50) of the NA enzymatic activity) [1] | Sensitivity to NA inhibitors (50% inhibitory concentration (IC50) of the NA enzymatic activity) [2] | Susceptibility of the H7N2 viruses to NA inhibitors (NA of the H7N2 viruses)
1 | CCOC(=O)C1=C[C@@H](OC(CC)CC)[C@H](NC(C)=O)[C@@H](N)C1 [oseltamivir] | sensitive | sensitive | susceptible
2 | CCC(CC)[C@H](NC(C)=O)[C@@H]1[C@H](O)[C@@H](C(=O)O)C[C@H]1N=C(N)N [peramivir] |  |  | susceptible
3 | [H]/N=C(\N)N[C@H]1C=C(C(=O)O)O[C@@H]([C@H](OC)[C@H](O)CO)[C@@H]1NC(C)=O [laninamivir] | sensitive | sensitive | susceptible
4 | CC(=O)N[C@H]1[C@H]([C@H](O)[C@H](O)CO)OC(C(=O)O)=C[C@@H]1N=C(N)N [zanamivir] | sensitive | sensitive | susceptible

From patent US20180303928A1 (priority 2017, published 2018)
